Results on 16 compounds are retold here after ChEMBL document CHEMBL1145238, “Selective PPARgamma modulators with improved pharmacological profiles” (Bioorg Med Chem Lett, 2005).

The target of one data set is Cytochrome P450 2C9 (Homo sapiens, UniProt P11712). Put plainly: Inhibitory concentration against Cytochrome P450 2C9 in rats.
Data set [1] addresses T1, Peroxisome proliferator-activated receptor gamma (Homo sapiens, UniProt P37231).
T1 sequence (P37231 whole entry): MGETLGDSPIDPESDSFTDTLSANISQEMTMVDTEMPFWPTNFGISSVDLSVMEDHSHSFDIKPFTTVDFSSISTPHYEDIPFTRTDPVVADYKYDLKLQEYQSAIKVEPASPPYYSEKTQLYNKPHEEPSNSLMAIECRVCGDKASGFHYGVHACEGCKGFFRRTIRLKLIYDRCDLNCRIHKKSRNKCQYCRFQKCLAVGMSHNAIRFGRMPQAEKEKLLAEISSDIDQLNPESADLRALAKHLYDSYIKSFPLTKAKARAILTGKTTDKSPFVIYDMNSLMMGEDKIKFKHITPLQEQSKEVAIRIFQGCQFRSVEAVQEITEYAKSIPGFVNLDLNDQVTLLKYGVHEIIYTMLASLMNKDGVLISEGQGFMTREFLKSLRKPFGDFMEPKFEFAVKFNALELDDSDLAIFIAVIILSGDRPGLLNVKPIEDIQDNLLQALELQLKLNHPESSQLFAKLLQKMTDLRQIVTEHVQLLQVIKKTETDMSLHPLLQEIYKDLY
Description: Maximal intrinsic response against peroxisome proliferator activated receptor gamma transactivation

Data set [2] deals with T1, Peroxisome proliferator-activated receptor gamma. Put plainly: Inhibition of human peroxisome proliferator activated receptor gamma binding.
The nature of data set [3]: Area under plasma concentration time curve when administered to db/db mice at 30 mg/kg dose. In kind it is ADME, organism-based. The arrangement: dose 30 mg/kg. The note with it: mouse, in vivo.
Data set [4] is described as follows: Area under plasma concentration time curve when administered to Sprague Dawley rats after once daily dosing for two weeks. It is filed as ADME. The note with it: rat.
The conditions of data set [5]: mouse, in vivo, 10 mg/kg.
Description: Area under plasma concentration time curve when administered to db/db mice at 10 mg/kg dose; Range = 250-700 uMh

Each structure is given as a SMILES string.

Cytochrome P450 2C9, sequence (P11712 whole entry): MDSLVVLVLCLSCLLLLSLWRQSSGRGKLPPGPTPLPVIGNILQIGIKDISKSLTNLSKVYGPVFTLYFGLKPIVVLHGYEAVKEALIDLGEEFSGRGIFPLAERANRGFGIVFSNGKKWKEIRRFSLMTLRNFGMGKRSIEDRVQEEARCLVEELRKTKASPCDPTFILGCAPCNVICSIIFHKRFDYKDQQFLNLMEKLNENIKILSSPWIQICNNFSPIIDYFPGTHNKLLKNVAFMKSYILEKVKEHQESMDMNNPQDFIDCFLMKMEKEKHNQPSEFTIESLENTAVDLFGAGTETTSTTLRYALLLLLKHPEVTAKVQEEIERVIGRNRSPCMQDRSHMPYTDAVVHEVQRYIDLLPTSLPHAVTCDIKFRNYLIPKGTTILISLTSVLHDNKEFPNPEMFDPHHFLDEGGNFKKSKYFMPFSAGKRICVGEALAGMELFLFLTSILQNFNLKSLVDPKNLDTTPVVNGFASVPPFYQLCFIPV

As a reminder, the IC50 is the concentration needed to halve the response being measured. Compound `Cc1[nH]c2ccc(OC(F)(F)F)cc2c1Cc1cccc(O[C@@H](C)C(=O)O)c1` displayed an IC50 against Cytochrome P450 2C9 of 0.05 µM. This counts as double-digit nanomolar.
By EC50 is commonly meant the midpoint of the concentration-response curve. A low value points to greater potency. In data set [1], `COc1ccc(C(=O)n2c(C)c(Cc3cccc(OCC#N)c3)c3cc(OC(F)(F)F)ccc32)cc1` returned an EC50 of 0.016 µM. The same compound registered an IC50 in data set [2] of 0.042 µM.
The matching figures for `Cc1c(Oc2cccc(O[C@@H](C)C(=O)O)c2)c2cc(OC(F)(F)F)ccc2n1-c1noc2cc(Cl)ccc12`: 0.195 µM and 0.033 µM.
With `COc1ccc(-n2c(C)c(Cc3cccc(O[C@@H](C)C(=O)O)c3)c3cc(OC(F)(F)F)ccc32)cc1`, the concentration for a half-maximal effect (EC50) in data set [1] turned out to be 0.003 µM. In data set [2], this compound gave an IC50 of 0.001 µM.
The matching figures for `Cc1c(Oc2cc(Cl)cc(O[C@@H](C)C(=O)O)c2)c2cc(OC(F)(F)F)ccc2n1-c1noc2cc(Cl)ccc12`: 0.114 µM and 0.109 µM.
On the same counts, the results for `CN1C(=O)SC(Cc2ccc(OCCN(C)c3ccccn3)cc2)C1=O` (stereo not given) are more than 3 µM and more than 50 µM.
The compound `Cc1c(Oc2cc(O[C@@H](C)C(=O)O)ccc2Cl)c2cc(OC(F)(F)F)ccc2n1-c1noc2cc(Cl)ccc12` came in with a concentration for a half-maximal effect (EC50) in data set [1] of 0.003 µM. For the same compound, the IC50 in data set [2] worked out at 0.005 µM.
`COc1ccc2c(-n3c(C)c(Cc4cc(O[C@H](C)C(=O)O)ccc4Cl)c4cc(OC(F)(F)F)ccc43)noc2c1` gave an EC50 in data set [1] of 0.003 µM. The results for the AUC in data set [3] and in data set [4] were 660 uMh and 1030 uMh, respectively. Further, the 50% inhibitory concentration (IC50) in data set [2] was found to be 0.002 µM.
Take `CCCc1ccc(Oc2c(C)n(-c3noc4cc(Cl)ccc34)c3ccc(OC(F)(F)F)cc23)cc1O[C@@H](C)C(=O)O`: the EC50 in data set [1] stood at 0.039 µM. For the same compound, in data set [2], the 50% inhibitory concentration (IC50) was found to be 0.02 µM.
The matching figures for `COc1ccc2ncc(-n3c(C)c(Cc4cccc(O[C@@H](C)C(=O)O)c4)c4cc(OC(F)(F)F)ccc43)cc2c1`: 0.049 µM and 0.029 µM.
Regarding `CCCc1c(Oc2c(C)n(-c3noc4cc(Cl)ccc34)c3ccc(OC(F)(F)F)cc23)cccc1O[C@@H](C)C(=O)O`, the IC50 in data set [2] was determined as 0.641 µM.
With `COc1ccc2nc(-n3c(C)c(Cc4cccc(O[C@@H](C)C(=O)O)c4)c4cc(OC(F)(F)F)ccc43)ccc2c1`, in data set [2], the half-inhibitory concentration (IC50) turned out to be 0.135 µM.
Turning to `Cc1c(Oc2ccc(Cl)c(O[C@@H](C)C(=O)O)c2)c2cc(OC(F)(F)F)ccc2n1-c1noc2cc(Cl)ccc12`, a half-maximal response in data set [1] (EC50) required 0.003 µM. For the same compound, the IC50 in data set [2] came out at 0.001 µM.
In turn, `C#CCOc1cccc(Cc2c(C)n(C(=O)c3ccc(OC)cc3)c3ccc(OC(F)(F)F)cc23)c1` displayed a 50% effective concentration (EC50) in data set [1] of 0.031 µM. In data set [2], the IC50 was 0.062 µM.
Consider `Cc1c(Cc2cccc(O[C@@H](C)C(=O)O)c2)c2cc(OC(F)(F)F)ccc2n1-c1ccccn1`, for which the 50% inhibitory concentration (IC50) in data set [2] came to 0.466 µM.
`CN(CCOc1ccc(CC2SC(=O)NC2=O)cc1)c1ccccn1` (stereo not given) [ROSIGLITAZONE]: the AUC in data set [5] is recorded as 700 uMh; in data set [4], 2700 uMh.
